In series [1] the target is T1, bradykinin receptors on intestinal (ileal longitudinal) smooth muscle (Cavia porcellus, UniProt O70526).
T1 construct: The longitudinal muscle was separated from the underlying circular muscle; from tissue; host or cells: guinea pig ileal longitudinal smooth muscle strips
T1 sequence (O70526 1-372): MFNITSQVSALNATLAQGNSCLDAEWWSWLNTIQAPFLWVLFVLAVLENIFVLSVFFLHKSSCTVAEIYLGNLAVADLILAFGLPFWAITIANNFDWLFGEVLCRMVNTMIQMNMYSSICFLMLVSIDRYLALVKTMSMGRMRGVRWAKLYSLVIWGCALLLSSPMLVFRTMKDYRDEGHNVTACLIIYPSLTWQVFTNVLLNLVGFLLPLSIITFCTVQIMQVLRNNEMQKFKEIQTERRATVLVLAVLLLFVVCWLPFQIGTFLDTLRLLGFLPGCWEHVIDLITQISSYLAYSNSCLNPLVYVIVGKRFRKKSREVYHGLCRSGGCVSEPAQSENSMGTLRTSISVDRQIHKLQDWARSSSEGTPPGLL
The experiment in a line: Bradykinin antagonist activity on guinea pig ileal longitudinal smooth muscle (Schild analysis). Particulars: antagonism of bradykinin-induced contraction, 5 min antagonist exposure; for Kb: read-out: pA2 (converted). Format: cell-based. Here is the method: Determination of Bradykinin Antagonist Activity
Guinea pig intestine was removed and placed in a Petri dish containing Tyrodes solution and cut into 3-4 cm segments. The longitudinal muscle was separated from the underlying circular muscle using a cotton applicator (Paton and Zar, J. Physiol., (1968), 194:13. Muscle strips were connected to isometric force-displacement transducers (Grass or Gould) coupled to a physiograph and placed in tissue baths containing Tyrode's solution at 37° C. Each preparation was suspended under a resting tension of 2 g.
After equilibration of the tissues, appropriate volumes of bradykinin solutions were cumulatively added to the 10 mL tissue baths to increase the concentration of bradykinin in the bath step-by-step without washing out after each single dose. Higher concentrations were added only after the preceding contraction had reached a steady value. […] Antagonism of bradykinin responses in the presence of antagonist were determined by repeating the cumulative addition procedure for bradykinin after the tissue has been exposed to the antagonist for 5 minutes. Three or four different concentrations of antagonist are studied sequentially in the same preparations. Responses were expressed as a percentage of the maximum contraction elicited by bradykinin in the absence of antagonist. pA2 values were calculated by Schild analysis.

Series [2] has as its target T2, bradykinin receptor (Cavia porcellus, UniProt O70526).
T2 construct: from tissue; host or cells: guinea pig terminal ileum, washed membrane homogenate
T2 sequence (O70526 1-372): T1 sequence (O70526 1-372)
The experiment in a line: 3H-Bradykinin binding assay, guinea pig terminal ileum homogenate. The settings on record: competition with 3H-bradykinin (~0.3 nM), guinea pig terminal ileum membranes, 90 min ambient temperature. Here is the method: Bradykinin Binding Procedure
Binding of ^3H-Bradykinin was preformed using the method of D. C. Manning, R. Vavrek, J. M. Stewart, and S. H. Synder, J. Pharmacol. Exp. Ther., (1986), 237, 504. The tissues used in the binding assay were terminal ileum from male Hartley guinea pigs (150-350 g). After dissection, tissues were placed in 20 vol of ice-cold buffer A (25 mM TES containing 0.2 g/L of 1,10-phenanthroline adjusted to pH 6.8 with ammonium hydroxide) and homogenized using a Ploytron Tissumizer at setting 6 for 15 sec. The homogenate was centrifuged at 50,000 x g for 10 min, the supernatant discarded, and the pellet resuspended in ice-cold buffer A by homogenization with the Polytron. Each tissue was homogenized and centrifuged three times. The final pellet was resuspended in buffer A containing bovine serum albumin (1 g/L) and Bacitracin (0.14 g/L) to a final volume of 170 mL/g of the original tissue weight. The binding assay consisted of 1 mL in 12×75 mm polypropylene tubes: 50 uL ^3H-bradykinin (20,000 dpm, ˜0.3 nM in the final assay volume), […] displacing drug in buffer A, and 750 uL tissue homogenate. Each tray contained tubes, to which no drug was added to measure maximum binding and tubes to which bradykinin (1 uM final concentration) had been added, to measure […]. Specific binding accounted for 96-98% total binding. Tubes were incubated for 90 min at ambient temperature. The assays were terminated by filtration over Whatman GF/B glass fiber filters that had been pretreated for 2 hours with polyethyleneimine (2 g/L) using a Brandel Tissue Harvester, followed by washing with 4×1 mL aliquots of ice-cold 50 mM Tris, pH 7.4. Filters were dissolved in Ready-Safe Fluor (Beckman) for at least 90 min before quantitation by liquid scintillation spectrometry. Kd values were determined using saturation binding and analysis by EBDA (G. A. MacPherson, J. Pharmacol. Methods, (1985), 213), followed by LIGAND (P. J. Munson, D. Rodbard, Anal. Biochem., (1980), 220). Ki values were determined using competitive analysis followed by EBDA and LIGAND. The following test results were obtained.

The conditions of series [3]: cited from earlier work.
The conditions of series [4]: anesthetized rat, intra-aortic vs intravenous administration; cited from earlier work.

As usually defined, the Ki is the dissociation constant of the complex between target and ligand, obtained from inhibition or displacement. Low values mean a stronger hold on the target, high ones a looser hold on the target. Broadly, the pA2 is the negative logarithm of the molar antagonist concentration that doubles the agonist concentration needed for the same response. A lower pA2 goes with a weaker antagonist.

Where “and” joins values, the source holds several entries; their conditions need not be identical. Identical values can stand only once. Residues, ends and D or L forms follow the SMILES beside them.

Regarding `CCCO[C@H]1C[C@H](C(=O)N2Cc3ccccc3C[C@H]2C(=O)N[C@@H](CCCNC(=N)N)C(=O)O)N(C(=O)[C@H](CO)NC(=O)[C@H](Cc2cccs2)NC(=O)CNC(=O)[C@@H]2C[C@@H](O)CN2C(=O)[C@@H]2CCCN2C(=O)[C@H](CCCNC(=N)N)NC(=O)[C@H](N)CCCNC(=N)N)C1` [D-Arg-Arg-Pro-4Hyp-Gly-Thi-Ser-(D-4-Hydroxyproline trans propyl ether)-Tic-Arg], the Kb in series [1] was 24.5 nM. In addition, in series [2], the affinity corresponds to a Ki of 0.59 nM.

On to `CO[C@@H]1C[C@H](C(=O)N2Cc3ccccc3C[C@H]2C(=O)N[C@@H](CCCNC(=N)N)C(=O)O)N(C(=O)[C@H](CO)NC(=O)[C@H](Cc2cccs2)NC(=O)CNC(=O)[C@@H]2C[C@@H](O)CN2C(=O)[C@@H]2CCCN2C(=O)[C@H](CCCNC(=N)N)NC(=O)[C@H](N)CCCNC(=N)N)C1` [D-Arg-Arg-Pro-4Hyp-Gly-Thi-Ser-(D-4-hydroxyproline cis methyl ether)-Tic-Arg], for which the Kb in series [1] is 5750 nM and 6310 nM. This compound also yielded an inhibition constant (Ki) in series [2] of 164 ± 20 nM.

As for `CCCO[C@@H]1C[C@H](C(=O)N2Cc3ccccc3C[C@H]2C(=O)N[C@@H](CCCNC(=N)N)C(=O)O)N(C(=O)[C@H](CO)NC(=O)[C@H](Cc2cccs2)NC(=O)CNC(=O)[C@@H]2C[C@@H](O)CN2C(=O)[C@@H]2CCCN2C(=O)[C@H](CCCNC(=N)N)NC(=O)[C@H](N)CCCNC(=N)N)C1` [D-Arg-Arg-Pro-4Hyp-Gly-Thi-Ser-(D-4-hydroxyproline cis propyl ether)-Tic-Arg], the Kb in series [1] is 8910 nM and 3160 nM. The same compound registered an inhibition constant Ki in series [2] of 172 ± 45 nM.

As for `CO[C@H]1C[C@H](C(=O)N2Cc3ccccc3C[C@H]2C(=O)N[C@@H](CCCNC(=N)N)C(=O)O)N(C(=O)[C@H](CO)NC(=O)[C@H](Cc2cccs2)NC(=O)CNC(=O)[C@@H]2C[C@@H](O)CN2C(=O)[C@@H]2CCCN2C(=O)[C@H](CCCNC(=N)N)NC(=O)[C@H](N)CCCNC(=N)N)C1` [D-Arg-Arg-Pro-4Hyp-Gly-Thi-Ser-(D-4-hydroxyproline trans methyl ether)-Tic-Arg], the Kb in series [1] is 186 nM. Besides, the inhibition constant Ki in series [2] was 1.54 nM.

In the case of `NC(N)=NCCC[C@H](NC(=O)[C@H](Cc1ccccc1)NC(=O)[C@@H]1CCCN1C(=O)[C@H](CO)NC(=O)[C@H](Cc1ccccc1)NC(=O)CNC(=O)[C@@H]1CCCN1C(=O)[C@@H]1CCCN1C(=O)[C@@H](N)CCCN=C(N)N)C(=O)O` [bradykinin, Arg Pro Pro Gly Phe Ser Pro Phe Arg] (H-RPPGFSPFR-OH), in series [3], the “half life in the systemic circulation” value is recorded as “less than 30 seconds”. The “destruction on a single passage through the pulmonary circulation” value in series [4] is 98-99%.

Take “D-Arg-Arg-Pro-4Hyp-Gly-Phe-Ser-D-Phe-Phe-Arg [reference compound]”: the pA2 in series [1] was found to be 5.9.

(Values after patent US6770741B1, “Brandykinin antagonist peptides” (Scios Inc., priority 1991, dated 2004).)
